Assay results from publication PMC8159387 (Chemical Science, 2020).
Square brackets hold non-standard residues; d marks the D form. Peptide text beside a SMILES is read from it. * marks the point of attachment. CH2CH2OBz(4-tBu) = CC(C)(C)c1ccc(C(=O)OCC*)cc1; dDab = NCC[C@@H](N)C(=O)O; Dab = NCC[C@H](N)C(=O)O; Mpa = O=C(O)CCS

Test system: E. coli, P. aeruginosa, A. calcoaceticus and S. aureus
Assay: MIC and MBC summarised across the test species
Assay type: cell-based
Settings: species not given

Row | SMILES | lowest MIC values of the CLipPA analogues [μM]
1 | CC(C)C[C@H](NC(=O)[C@H](CCN)NC(=O)[C@H](CCN)NC(=O)[C@@H](Cc1ccccc1)NC(=O)[C@H](CC(C)C)NC(=O)[C@H](CCN)NC(=O)[C@H](CCN)NC(=O)[C@@H](CCN)NC(=O)CCSCCOC(=O)c1ccc(C(C)(C)C)cc1)C(N)=O [Peptide 13f] ([Mpa](CH2CH2OBz(4-tBu))[dDab][Dab][Dab]L[dF][Dab][Dab]L-NH2) | 8
2 | CC(C)C[C@H](NC(=O)[C@H](CCN)NC(=O)[C@H](CCN)NC(=O)[C@@H](Cc1ccccc1)NC(=O)[C@H](CC(C)C)NC(=O)[C@H](CCN)NC(=O)[C@H](CCN)NC(=O)[C@@H](CCN)NC(=O)[C@@H](N)CSCCOC(=O)c1ccc(C(C)(C)C)cc1)C(N)=O [Peptide 12f] (H-C(CH2CH2OBz(4-tBu))[dDab][Dab][Dab]L[dF][Dab][Dab]L-NH2) | 8
